The source of these data is patent US10441620B2, “Method for protection of bladder from damage” (Wellstrong Biotech Co., Ltd., priority 2016, dated 2019).

Molecules are shown by their SMILES.

This test in a line: CUPRAC assay for total antioxidants. Particulars: absorbance at 450 nm. Here is the method:
The CUPRAC assay was utilized to determine the total antioxidant capacity. This assay relies on the electron donating capabilities of antioxidants to reduce the copper ion. The CUPRAC working solution consisted of 10 mM copper (II) chloride dihydrate, 1M ammonium acetate, and 7.5 mM neocuproine. 0.15 mL of the above three solutions were added to 0.15 mL of each sample and allowed to react for 30 minutes at room temperature, after which the absorbance was read at 450 nm in a Hitachi U-2001 spectrophotometer.

In the case of `O=C1O[C@H]([C@@H](O)CO)C(O)=C1O` [ascorbic acid], the “total antioxidant activity (antioxidant value of standard curve)” value is given as 27±1.7 mg Ascorbic acid per mOD optical density.
